Results as given in PubChem BioAssay AID230 (DTP/NCI, 2004).
“And” between values parts separate entries of the source, which are not always exact repeats. Equal values may be shown once. Toxic doses and inconclusive results are not listed. Rule for the calls: active = survival T/C of 150% or more; inactive = T/C below 125% in these data.

System: C3H/He mice, Gardner lymphosarcoma 6C3HED ip, survival T/C
Test: NCI In Vivo Anticancer Drug Screen. Data for tumor model Lymphosarcoma Gardner 6C3HED (intraperitoneal) in C3H/He mice
Settings: higher = longer survival
Procedure: The antitumor activity of compounds was measured in mice bearing transplantable tumors. Survival or tumor size were measured and the results are expressed as the measurement made in the treated group (T) divided by the measurement made in the vehicle treated control group (C). The tumor model used in this assay is Lymphosarcoma Gardner 6C3HED (intraperitoneal) in C3H/He mice

[1] = endpoint: median survival time, dose: 12.5 mg/kg/injection, schedule: Q01DX003 (ip), vehicle: saline
[2] = endpoint: median survival time, dose: 12.5 mg/kg/injection, schedule: Q12HX006 (ip), vehicle: saline
[3] = endpoint: median survival time, dose: 25.0 mg/kg/injection, schedule: Q01DX003 (ip), vehicle: saline
[4] = endpoint: median survival time, dose: 25.0 mg/kg/injection, schedule: Q12HX006 (ip), vehicle: saline
[5] = endpoint: median survival time, dose: 50.0 mg/kg/injection, schedule: Q01DX003 (ip), vehicle: saline
[6] = endpoint: median survival time, dose: 50.0 mg/kg/injection, schedule: Q12HX006 (ip), vehicle: saline
[7] = endpoint: survival time, mean or median, dose: 1.25 mg/kg/injection, schedule: Q01DX010 (ip), vehicle: saline
[8] = endpoint: survival time, mean or median, dose: 5.0 mg/kg/injection, schedule: Q01DX010 (ip), vehicle: saline
[9] = endpoint: survival time, mean or median, dose: 250.0 micrograms/kg/injection, schedule: Q01DX010 (ip), vehicle: saline
[10] = endpoint: survival time, mean or median, dose: 50.0 mg/kg/injection, schedule: Q01DX010 (ip), vehicle: saline
[11] = endpoint: survival time, mean or median, dose: 4.0 mg/kg/injection, schedule: Q01DX010 (ip), vehicle: saline
[12] = endpoint: survival time, mean or median, dose: 8.0 mg/kg/injection, schedule: Q01DX010 (ip), vehicle: saline
[13] = endpoint: survival time, mean or median, dose: 16.0 mg/kg/injection, schedule: Q01DX010 (ip), vehicle: saline
[14] = endpoint: survival time, mean or median, dose: 2.5 mg/kg/injection, schedule: Q01DX010 (ip), vehicle: saline
[15] = endpoint: survival time, mean or median, dose: 10.0 mg/kg/injection, schedule: Q01DX010 (ip), vehicle: saline
[16] = endpoint: survival time, mean or median, dose: 62.5 mg/kg/injection, schedule: Q01DX010 (ip), vehicle: saline
[17] = endpoint: survival time, mean or median, dose: 125.0 mg/kg/injection, schedule: Q01DX010 (ip), vehicle: saline
[18] = endpoint: survival time, mean or median, dose: 0.5 mg/kg/injection, schedule: Q01DX010 (ip), vehicle: saline
[19] = endpoint: survival time, mean or median, dose: 1.0 mg/kg/injection, schedule: Q01DX010 (ip), vehicle: saline

Measured: T/C

Nc1ncnc2c1ncn2C1OC(CO)C(O)C1O (configuration not stated)
inactive: [1] 90 % of control | endpoint: median survival time, dose: 12.5 mg/kg/injection, schedule: Q11DX018 (ip), vehicle: saline with Tween-80 96 % of control | [2] 108 % of control | [3] 95 % of control | [4] 112 % of control | [5] 100 % of control | [6] 120 % of control

NC(Cc1ccc(N(CCCl)CCCl)cc1)C(=O)O (configuration not stated)
inactive: [7] 107 % of control | [8] 89 % of control and 119 % of control

CS(=O)(=O)OCCN(CCOS(C)(=O)=O)c1ccc(N=O)cc1
inactive: endpoint: survival time, mean or median, dose: 62.5 micrograms/kg/injection, schedule: Q01DX010 (ip), vehicle: saline 107 % of control | endpoint: survival time, mean or median, dose: 125.0 micrograms/kg/injection, schedule: Q01DX010 (ip), vehicle: saline 111 % of control | [9] 111 % of control | endpoint: survival time, mean or median, dose: 500.0 micrograms/kg/injection, schedule: Q01DX010 (ip), vehicle: saline 92 % of control

CS(=O)(=O)OCCC(=O)N1CCN(C(=O)CCOS(C)(=O)=O)CC1
active: [10] 207 % of control and 267 % of control

CCCCn1cnc2c(=S)nc[nH]c21
inactive: [11] 100 % of control | [12] 93 % of control | [13] 90 % of control and 92 % of control

COC1C(OC(=O)/C=C/C=C/C=C/C=C/C(=O)O)CCC2(CO2)C1C1(C)OC1CC=C(C)C (configuration not stated)
inactive: endpoint: survival time, mean or median, dose: 12.5 mg/kg/injection, schedule: Q01DX010 (ip), vehicle: saline 102 % of control | endpoint: survival time, mean or median, dose: 25.0 mg/kg/injection, schedule: Q01DX010 (ip), vehicle: saline 110 % of control | [10] 110 % of control | endpoint: survival time, mean or median, dose: 100.0 mg/kg/injection, schedule: Q01DX010 (ip), vehicle: saline 100 % of control

O=C(O)c1[nH]c(=O)[nH]c(=O)c1F
inactive: [7] 111 % of control | [14] 95 % of control and 107 % of control | [8] 92 % of control and 103 % of control | [15] 96 % of control

O=c1[nH]c(=O)n(C2CC(O)C(CO)O2)cc1C(F)(F)F (configuration not stated)
inactive: endpoint: survival time, mean or median, dose: 31.3 mg/kg/injection, schedule: Q01DX010 (ip), vehicle: saline 119 % of control | [16] 119 % of control | [17] 100 % of control

Nc1nc(F)nc2c1ncn2C1OC(CO)C(O)C1O (configuration not stated)
inactive: [18] 87 % of control | [19] 87 % of control | [9] 86 % of control

COc1cc(-c2ccc(Nc3ccccc3C(=O)O)c(OC)c2)ccc1N
inactive: [8] 110 % of control | [15] 96 % of control and 107 % of control | endpoint: survival time, mean or median, dose: 20.0 mg/kg/injection, schedule: Q01DX010 (ip), vehicle: saline 92 % of control | endpoint: survival time, mean or median, dose: 40.0 mg/kg/injection, schedule: Q01DX010 (ip), vehicle: saline 89 % of control and 96 % of control | endpoint: survival time, mean or median, dose: 80.0 mg/kg/injection, schedule: Q01DX010 (ip), vehicle: saline 89 % of control

O=C(Nc1ccc(C2=NCCN2)cc1)c1cccc(C(=O)Nc2ccc(C3=NCCN3)cc2)c1
inactive: [12] 95 % of control
active: [13] 304 % of control | endpoint: survival time, mean or median, dose: 32.0 mg/kg/injection, schedule: Q01DX010 (ip), vehicle: saline 304 % of control | endpoint: survival time, mean or median, dose: 64.0 mg/kg/injection, schedule: Q01DX010 (ip), vehicle: saline 304 % of control

O=c1[nH]cnc2c1ncn2C1OC(CO)C(O)C1O (configuration not stated)
inactive: [1] 90 % of control | [2] 101 % of control | [3] 95 % of control | [4] 104 % of control | [5] 100 % of control | [6] 106 % of control

N#[N+]c1cnc([O-])[nH]c1=O
inactive: [7] 123 % of control | [8] 106 % of control
active: [14] 150 % of control

NC(=O)N(CCCl)N=O
inactive: [11] 100 % of control
active: [18] 204 % of control | [19] 228 % of control | endpoint: survival time, mean or median, dose: 2.0 mg/kg/injection, schedule: Q01DX010 (ip), vehicle: saline 161 % of control

O=CN(O)CC(=O)O
inactive: [16] 96 % of control | [17] 89 % of control | endpoint: survival time, mean or median, dose: 250.0 mg/kg/injection, schedule: Q01DX010 (ip), vehicle: saline 107 % of control | endpoint: survival time, mean or median, dose: 500.0 mg/kg/injection, schedule: Q01DX010 (ip), vehicle: saline 100 % of control
